Laboratory results reported in the supplement of paper PMC10307832.

Legend:
Test in all cases: relative viability (nuclei count vs DMSO), 5 days (fraction); higher = more cells survive
Seliciclib + Navitoclax = compound: CC[C@H](CO)Nc1nc(NCc2ccccc2)c2ncn(C(C)C)c2n1 [Seliciclib] + CC1(C)CCC(c2ccc(Cl)cc2)=C(CN2CCN(c3ccc(C(=O)NS(=O)(=O)c4ccc(N[C@H](CCN5CCOCC5)CSc5ccccc5)c(S(=O)(=O)C(F)(F)F)c4)cc3)CC2)C1 [Navitoclax] (partner 0.5 µM)
Procedure, shortened: (§1)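 Relative viability divides the nuclei count in treated wells by that in vehicle wells. Lung cancer cell lines were seeded in 1536-well plates, dosed by pin tool the next day, and fixed and stained after 5 days in one step with final 0.05% Triton X-100, 1% formaldehyde and 1 ug/ml Hoechst. Dosing was a single drug or a fixed anchor-drug dose plus five library-drug doses (not always all listed) in √10 steps, and values are medians of duplicate plates imaged at 4×.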

Seliciclib + Linsitinib = compound: CC[C@H](CO)Nc1nc(NCc2ccccc2)c2ncn(C(C)C)c2n1 [Seliciclib] + C[C@]1(O)C[C@@H](c2nc(-c3ccc4ccc(-c5ccccc5)nc4c3)c3c(N)nccn32)C1 [Linsitinib] (partner 1 µM)
Procedure, shortened: as §1

Seliciclib + Foretinib = compound: CC[C@H](CO)Nc1nc(NCc2ccccc2)c2ncn(C(C)C)c2n1 [Seliciclib] + COc1cc2c(Oc3ccc(NC(=O)C4(C(=O)Nc5ccc(F)cc5)CC4)cc3F)ccnc2cc1OCCCN1CCOCC1 [Foretinib] (partner 0.25 µM)
Procedure, shortened: as §1

Seliciclib + Luminespib = compound: CC[C@H](CO)Nc1nc(NCc2ccccc2)c2ncn(C(C)C)c2n1 [Seliciclib] + CCNC(=O)c1noc(-c2cc(C(C)C)c(O)cc2O)c1-c1ccc(CN2CCOCC2)cc1 [Luminespib] (partner 0.01 µM)
Procedure, shortened: as §1

| Cell Line | relative viability (Seliciclib + Navitoclax; first compound 0.08 µM) | relative viability (Seliciclib + Navitoclax; first compound 0.253 µM) | relative viability (Seliciclib + Navitoclax; first compound 0.8 µM) | relative viability (Seliciclib + Navitoclax; first compound 2.53 µM) | relative viability (Seliciclib + Navitoclax; first compound 8 µM) | relative viability (Seliciclib + Linsitinib; first compound 0.08 µM) | relative viability (Seliciclib + Linsitinib; first compound 0.253 µM) | relative viability (Seliciclib + Linsitinib; first compound 0.8 µM) | relative viability (Seliciclib + Linsitinib; first compound 2.53 µM) | relative viability (Seliciclib + Linsitinib; first compound 8 µM) | relative viability (Seliciclib + Foretinib; first compound 0.08 µM) | relative viability (Seliciclib + Foretinib; first compound 0.253 µM) | relative viability (Seliciclib + Foretinib; first compound 0.8 µM) | relative viability (Seliciclib + Foretinib; first compound 8 µM) | relative viability (Seliciclib + Luminespib; first compound 0.08 µM) | relative viability (Seliciclib + Luminespib; first compound 0.253 µM) | relative viability (Seliciclib + Luminespib; first compound 0.8 µM) | relative viability (Seliciclib + Luminespib; first compound 2.53 µM) | relative viability (Seliciclib + Luminespib; first compound 8 µM) | relative viability (Seliciclib + Foretinib; first compound 2.53 µM) |
| --- | --- | --- | --- | --- | --- | --- | --- | --- | --- | --- | --- | --- | --- | --- | --- | --- | --- | --- | --- | --- |
| 201T | 1.18 | 1.17 | 1.2 | 1.2 | 1.13 | 1.04 | 1.07 | 0.994 | 1.05 | 0.982 | 0.915 | 1.13 | 1.07 | 1.04 | 1.02 | 1.1 | 0.976 | 0.999 | 1.03 |  |
| A549 | 1.08 | 1.06 | 1.21 | 1.19 | 0.925 | 0.599 | 0.473 | 0.434 | 0.651 | 0.446 | 0.919 | 0.985 | 0.895 | 0.775 |  |  |  |  |  | 0.966 |
| A-427 | 1.01 | 0.95 | 0.809 | 0.946 | 0.95 | 1.08 | 1.11 | 1.2 | 1.15 | 1.13 | 1.06 | 1.11 | 0.944 | 1.17 | 0.905 | 0.744 | 0.926 | 0.873 | 0.902 | 1.28 |
| ABC-1 |  |  |  |  |  | 0.919 | 0.806 | 0.918 | 0.957 | 1.04 | 1.04 | 0.987 | 1.17 | 1.2 | 0.447 | 0.753 | 0.478 | 0.378 | 0.396 | 1.02 |
| BEN | 0.0594 |  | 0.0808 | 0.213 | 0.0793 | 1.16 |  | 0.852 | 1.07 | 0.786 | 0.615 | 0.576 | 0.746 | 0.592 | 0.344 | 0.439 | 0.662 | 0.259 | 0.251 | 0.621 |
| CAL-12T | 1.25 |  | 1.04 | 1.03 | 1.06 | 0.87 | 0.977 | 0.744 | 0.742 | 0.673 | 1.16 | 1.48 | 1.26 | 0.731 | 0.351 | 0.411 | 0.363 | 0.388 | 0.313 | 1.21 |
| COR-L23 | 0.906 | 1.1 | 0.867 | 1.06 | 0.733 | 0.873 | 0.84 | 0.922 | 1.11 | 0.684 | 0.928 | 1.22 | 0.981 | 0.738 | 0.658 | 0.67 | 0.579 | 0.871 | 0.556 | 0.99 |
| COR-L 105 | 0.86 | 0.624 | 0.597 | 0.763 | 0.684 | 1.04 | 0.748 | 0.943 | 0.91 | 0.926 | 1.11 | 0.8 | 1.02 | 1.02 | 1.07 | 0.428 | 0.817 | 0.859 | 0.532 | 1.18 |
| Calu-6 | 0.796 | 0.933 | 0.939 | 0.895 | 0.825 | 1.05 | 0.996 | 0.95 | 1.01 | 0.899 | 0.847 | 0.686 | 0.945 | 0.733 |  |  |  |  |  | 0.892 |
| ChaGo-K-1 | 1.03 | 0.567 | 0.949 | 0.755 | 0.431 |  |  |  |  |  | 0.877 | 0.862 | 0.892 | 0.823 | 0.587 | 0.362 | 0.711 | 0.536 | 0.603 | 0.979 |
| EKVX | 0.951 | 1.1 | 0.865 | 0.777 | 0.702 | 0.925 | 1.1 | 0.94 | 1.14 | 0.711 |  | 0.887 | 0.533 | 0.77 |  | 1.03 | 0.794 | 0.821 | 0.642 | 0.756 |
| EMC-BAC-2 | 1.13 | 1.11 | 1.1 | 1.27 | 1.09 | 0.835 | 0.805 | 0.775 | 0.894 | 0.754 | 1.02 | 0.94 | 0.955 | 0.909 | 1.15 | 1.02 | 1.15 | 1.16 | 1.11 | 1.02 |
| EPLC-272H | 1.24 | 0.987 | 1.12 | 1.28 | 1.12 | 1.32 | 1.09 | 1.04 | 1.35 | 0.927 | 0.707 | 0.72 | 0.56 | 0.494 | 0.297 | 0.204 | 0.214 | 0.177 | 0.231 | 0.623 |
| H3255 | 0.656 | 0.558 | 0.512 | 0.436 | 0.46 | 0.872 | 0.926 | 1.02 | 1.16 | 0.891 | 0.808 | 1.01 | 0.51 | 0.895 | 0.868 | 1.05 | 0.94 | 0.833 | 0.917 | 0.806 |
| HARA | 1.13 | 1.23 | 1.11 | 1.16 | 1.07 | 0.978 | 1.02 | 0.943 | 1.1 | 1.01 | 0.95 | 1.06 | 0.943 | 0.714 | 0.727 | 0.764 | 0.65 | 1.12 | 0.581 | 0.982 |
| HCC-15 | 0.719 | 0.77 | 0.677 | 0.718 | 0.491 | 0.931 | 0.986 | 0.861 | 0.941 | 0.667 | 1.06 | 1.13 | 0.968 | 0.724 | 0.275 | 0.386 | 0.304 | 0.33 | 0.309 | 0.959 |
| HCC-44 | 1.05 | 0.934 | 0.957 | 1.07 | 1.03 | 0.64 | 0.626 | 0.633 | 0.697 | 0.649 |  |  |  |  | 0.913 | 1.07 | 1.01 | 0.997 | 0.726 |  |
| HCC-78 | 0.73 | 0.969 | 0.738 | 0.703 | 0.557 | 0.478 | 0.558 | 0.49 | 0.596 | 0.404 | 0.535 | 0.574 | 0.445 | 0.457 |  |  |  |  |  | 0.41 |
